Reference: paper PMC12027554, “Inhibition of ABCG2 by SCO-101 Enhances Chemotherapy Efficacy in Cancer” (International Journal of Molecular Sciences, 2025)

Key:
PANC-1MX100 cells = test: Cell viability assay, mitoxantrone-resistant PANC-1; format: cell-based, human; settings: SCO-101 20 µM, 72 h
Description: (§1) Cells were seeded at a density of 0.2–1 × 10^4 cells/well into 96-well plates. One day after seeding, treatments were performed in triplicate for 72 h, or as otherwise indicated in the relevant panel/figure legend and kept at 37 °C/5% CO2. Growth medium alone (“untreated” cells) or DMSO was used as a control.
(§2) For MTT assays, media were replaced at the final timepoint with 100 μL of 1:10 MTT reagent (0.5 mg/mL in PBS) diluted in growth medium, and plates were incubated for 3 h. A total of 100 μL/well of stop buffer (50 g Sodium Dodecyl Sulfate, 245 mL ddH2O, 5 mL 1N HCl) was added and plates incubated for 24 h to let colored formazan crystals develop. Optical densities (ODs) were measured with a PowerWave^TM Microplate spectrophotometer (BioTek, Winooski, VT, USA) at 570 nm and 670 nm (background).
Background values were subtracted prior to further analysis. The percentage of cell viability was expressed as relative values versus untreated cells as determined by the various assays. EC50/IC50 values were calculated using GraphPad Prism (v10.4.1) and the in-built non-linear regression [log (inhibitor) vs. response—variable slope (four parameters)] calculation. For determination of synergy scores, the online tool SynergyFinder+ (https://synergyfinder.org access date 15 February 2025) was employed following 4 × 4- or 6 × 6-matrix dose-escalation cell viability experiments. […]

ABCG2 = target: T1, ABCG2 (Homo sapiens, UniProt Q9UNQ0); test: Efflux transporter inhibition, vesicular uptake into inside-out membrane vesicles (ABCG2); format: biochemical; set-up: purchased SOLVO biotechnology, Budapest, Hungary
T1 sequence (Q9UNQ0 1-655): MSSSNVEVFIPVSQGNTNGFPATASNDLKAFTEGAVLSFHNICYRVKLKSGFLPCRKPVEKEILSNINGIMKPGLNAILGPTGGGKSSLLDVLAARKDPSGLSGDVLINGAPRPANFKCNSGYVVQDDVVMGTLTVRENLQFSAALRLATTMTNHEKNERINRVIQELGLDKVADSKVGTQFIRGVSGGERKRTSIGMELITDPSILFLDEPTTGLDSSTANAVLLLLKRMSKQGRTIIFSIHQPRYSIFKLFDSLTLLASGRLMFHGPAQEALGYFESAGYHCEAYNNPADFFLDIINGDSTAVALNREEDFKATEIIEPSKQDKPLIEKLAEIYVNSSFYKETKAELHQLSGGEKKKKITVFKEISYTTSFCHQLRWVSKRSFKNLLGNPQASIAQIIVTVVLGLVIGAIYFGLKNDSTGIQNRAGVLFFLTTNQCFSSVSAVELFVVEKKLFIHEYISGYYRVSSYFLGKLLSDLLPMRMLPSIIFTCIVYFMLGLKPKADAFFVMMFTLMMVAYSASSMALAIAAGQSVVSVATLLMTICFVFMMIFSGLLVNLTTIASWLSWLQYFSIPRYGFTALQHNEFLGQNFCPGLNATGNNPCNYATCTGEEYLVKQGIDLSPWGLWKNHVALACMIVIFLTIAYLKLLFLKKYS
Description: (§3) Efflux transporter inhibition was evaluated by measuring vesicular uptake into inside-out membrane vesicles (SOLVO biotechnology, Budapest, Hungary) expressing a single human ABC transporter (0.67 mg/mL ABCB1; 0.67 mg/mL ABCC2; 0.33 mg/mL ABCG2 membrane protein) of a probe substrate (1 μM N-methyl-quinidine for ABCB1; 100 μM 5(6)-carboxy-2′,7′-dichlorofluorescein for ABCC2; 1 μM Eestrone-3-sulfate for ABCG2) in the presence of SCO-101 with and without ATP (4 mM) in 96-well plate format. Control solvent and control inhibitors (4–60 μM verapamil for […]; 1–15 μM sulfasalazine for ABCG2; 5.5–150 μM benzbromarone for ABCC2) were incubated in parallel. Vesicular uptake was conducted at 37 °C in incubation buffer (10 mM Tris-HCl, pH 7.4, 10 mM MgCl2, 250 mM sucrose) and terminated after 1 min (ABCB1 and ABCG2) or 5 min (ABCC2) by adding ice-cold washing buffer (10 mM Tris-HCl, pH 7.4, 100 mM NaCl, 250 mM sucrose). […] Probe quantification was conducted using LC-MS/MS peak areas (solvent control with ATP − AMP = 100%). […] The remaining transporter activity % was calculated according to the formula below, and fitting was performed using GraphPad Prism: A%=AATP,sample−AAMP,sample/AATP,solvent−AAMP,solvent

HT29PAR cells = test: Cell viability assay (MTT / CCK-8), drug-sensitive HT29; format: cell-based, human; settings: Homo sapiens, HT-29, 72 h
Description: as §1, §2
For CCK-8 assays, 100 μL of 1:10 CCK-8 reagent (pevonedistat-treated HT29 cells) diluted in medium was added to each well and cells incubated for 1–2 h at 37 °C. OD values were measured at 450 nm with a VersaMax microplate spectrophotometer (Molecular Devices, San Jose, CA, USA).
Background values were subtracted prior to further analysis. The percentage of cell viability was expressed as relative values versus untreated cells as determined by the various assays. EC50/IC50 values were calculated using GraphPad Prism (v10.4.1) and the in-built non-linear regression [log (inhibitor) vs. response—variable slope (four parameters)] calculation. For determination of synergy scores, the online tool SynergyFinder+ (https://synergyfinder.org access date 15 February 2025) was employed following 4 × 4- or 6 × 6-matrix dose-escalation cell viability experiments. Doses of drugs are indicated in the relevant figure legends and ranges have been chosen based on the response of cells to single-drug dose-dependent experiments. Synergy scores were calculated using the ZIP model, which takes the advantages of both the Loewe additivity and the Bliss independence models, aiming at a systematic assessment of various types of drug interaction patterns that may arise in a high-throughput drug combination screening.

MRP2/ABCC2 = target: T2, MRP2/ABCC2 (Homo sapiens, UniProt Q92887); test: Efflux transporter inhibition, vesicular uptake into inside-out membrane vesicles (ABCC2); format: biochemical; settings: 100 μM 5(6)-carboxy-2′,7′-dichlorofluorescein
T2 construct: purchased SOLVO biotechnology, Budapest, Hungary
T2 sequence (Q92887 whole entry): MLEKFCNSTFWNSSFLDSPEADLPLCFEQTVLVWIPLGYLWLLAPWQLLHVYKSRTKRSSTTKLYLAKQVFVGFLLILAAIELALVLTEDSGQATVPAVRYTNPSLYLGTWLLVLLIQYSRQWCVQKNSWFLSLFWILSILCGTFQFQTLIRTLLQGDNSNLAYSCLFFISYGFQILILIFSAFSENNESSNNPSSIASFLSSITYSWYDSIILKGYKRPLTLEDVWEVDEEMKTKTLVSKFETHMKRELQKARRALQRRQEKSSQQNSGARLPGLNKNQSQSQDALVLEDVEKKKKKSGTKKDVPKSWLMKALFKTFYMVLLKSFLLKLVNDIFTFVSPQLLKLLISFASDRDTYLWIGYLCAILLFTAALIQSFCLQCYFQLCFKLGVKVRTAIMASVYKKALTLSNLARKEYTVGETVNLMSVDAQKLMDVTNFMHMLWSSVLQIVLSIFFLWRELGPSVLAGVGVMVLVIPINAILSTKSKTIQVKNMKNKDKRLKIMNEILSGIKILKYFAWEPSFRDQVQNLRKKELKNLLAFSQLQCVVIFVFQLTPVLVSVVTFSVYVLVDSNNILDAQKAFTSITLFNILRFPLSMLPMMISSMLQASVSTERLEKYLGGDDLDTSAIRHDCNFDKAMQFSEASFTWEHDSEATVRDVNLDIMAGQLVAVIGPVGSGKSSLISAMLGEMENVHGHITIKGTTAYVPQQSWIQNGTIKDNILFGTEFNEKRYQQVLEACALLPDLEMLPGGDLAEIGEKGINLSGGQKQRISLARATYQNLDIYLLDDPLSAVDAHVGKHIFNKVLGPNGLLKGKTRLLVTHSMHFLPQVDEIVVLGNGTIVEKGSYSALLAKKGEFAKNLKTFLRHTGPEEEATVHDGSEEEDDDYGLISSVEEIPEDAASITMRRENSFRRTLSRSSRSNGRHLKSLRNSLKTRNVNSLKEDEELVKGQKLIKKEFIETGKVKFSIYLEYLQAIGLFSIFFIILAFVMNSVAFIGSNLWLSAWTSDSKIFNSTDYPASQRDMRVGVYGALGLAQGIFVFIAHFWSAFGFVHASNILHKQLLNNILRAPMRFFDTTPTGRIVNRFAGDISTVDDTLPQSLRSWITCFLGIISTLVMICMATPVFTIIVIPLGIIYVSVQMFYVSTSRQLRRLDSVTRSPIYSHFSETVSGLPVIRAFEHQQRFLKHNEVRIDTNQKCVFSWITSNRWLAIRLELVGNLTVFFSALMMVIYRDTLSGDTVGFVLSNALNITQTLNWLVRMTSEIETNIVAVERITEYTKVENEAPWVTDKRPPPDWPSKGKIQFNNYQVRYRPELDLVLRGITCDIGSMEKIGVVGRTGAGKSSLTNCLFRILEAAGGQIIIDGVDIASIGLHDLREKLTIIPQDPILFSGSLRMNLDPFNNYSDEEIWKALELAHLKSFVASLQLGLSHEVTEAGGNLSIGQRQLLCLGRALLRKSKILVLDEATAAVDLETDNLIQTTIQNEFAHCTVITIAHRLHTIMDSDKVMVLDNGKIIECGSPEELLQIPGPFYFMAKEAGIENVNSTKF
Description: as §3

Structure (SMILES): O=C(Nc1cc(C(F)(F)F)cc(C(F)(F)F)c1)Nc1ccc(Br)cc1-c1nnn[nH]1 [SCO-101, N-[4-Bromo-2-(1H-1,2,3,4-tetrazol-5-yl)phenyl]-N′-[3,5-bis(trifluoromethyl)phenyl]urea]
- cell viability, SCO-101 combined with mitoxantrone or SN-38 (PANC-1MX100 cells): re-sensitized
- IC50 (ABCG2; ABCG2 inside-out vesicles, 1 μM estrone-3-sulfate, SCO-101 0.001–300 µM, read-out: IC50, ATP-dependent vesicular uptake of probe substrate (remaining ABCG2 activity)): 0.16 µM
- IC50 for MDR1/ABCB1 and MRP2/ABCC2 relative to ABCG2 (ABCG2; selectivity for ABCG2): > 100 fold
- IC50 (HT29PAR cells): > 25 µM
- IC50 (MRP2/ABCC2): 24.1 µM
